Laboratory results as given in US11230541B2, “Heterocyclic compound” (Takeda Pharmaceutical Company Limited, priority 2017, dated 2022).

Target: T1, NMDA receptor containing the NR2B subunit (Rattus norvegicus, UniProt Q00960)
T1 construct: host or cells: rodents, in vivo
T1 sequence (Q00960 27-1482, other chains not shown): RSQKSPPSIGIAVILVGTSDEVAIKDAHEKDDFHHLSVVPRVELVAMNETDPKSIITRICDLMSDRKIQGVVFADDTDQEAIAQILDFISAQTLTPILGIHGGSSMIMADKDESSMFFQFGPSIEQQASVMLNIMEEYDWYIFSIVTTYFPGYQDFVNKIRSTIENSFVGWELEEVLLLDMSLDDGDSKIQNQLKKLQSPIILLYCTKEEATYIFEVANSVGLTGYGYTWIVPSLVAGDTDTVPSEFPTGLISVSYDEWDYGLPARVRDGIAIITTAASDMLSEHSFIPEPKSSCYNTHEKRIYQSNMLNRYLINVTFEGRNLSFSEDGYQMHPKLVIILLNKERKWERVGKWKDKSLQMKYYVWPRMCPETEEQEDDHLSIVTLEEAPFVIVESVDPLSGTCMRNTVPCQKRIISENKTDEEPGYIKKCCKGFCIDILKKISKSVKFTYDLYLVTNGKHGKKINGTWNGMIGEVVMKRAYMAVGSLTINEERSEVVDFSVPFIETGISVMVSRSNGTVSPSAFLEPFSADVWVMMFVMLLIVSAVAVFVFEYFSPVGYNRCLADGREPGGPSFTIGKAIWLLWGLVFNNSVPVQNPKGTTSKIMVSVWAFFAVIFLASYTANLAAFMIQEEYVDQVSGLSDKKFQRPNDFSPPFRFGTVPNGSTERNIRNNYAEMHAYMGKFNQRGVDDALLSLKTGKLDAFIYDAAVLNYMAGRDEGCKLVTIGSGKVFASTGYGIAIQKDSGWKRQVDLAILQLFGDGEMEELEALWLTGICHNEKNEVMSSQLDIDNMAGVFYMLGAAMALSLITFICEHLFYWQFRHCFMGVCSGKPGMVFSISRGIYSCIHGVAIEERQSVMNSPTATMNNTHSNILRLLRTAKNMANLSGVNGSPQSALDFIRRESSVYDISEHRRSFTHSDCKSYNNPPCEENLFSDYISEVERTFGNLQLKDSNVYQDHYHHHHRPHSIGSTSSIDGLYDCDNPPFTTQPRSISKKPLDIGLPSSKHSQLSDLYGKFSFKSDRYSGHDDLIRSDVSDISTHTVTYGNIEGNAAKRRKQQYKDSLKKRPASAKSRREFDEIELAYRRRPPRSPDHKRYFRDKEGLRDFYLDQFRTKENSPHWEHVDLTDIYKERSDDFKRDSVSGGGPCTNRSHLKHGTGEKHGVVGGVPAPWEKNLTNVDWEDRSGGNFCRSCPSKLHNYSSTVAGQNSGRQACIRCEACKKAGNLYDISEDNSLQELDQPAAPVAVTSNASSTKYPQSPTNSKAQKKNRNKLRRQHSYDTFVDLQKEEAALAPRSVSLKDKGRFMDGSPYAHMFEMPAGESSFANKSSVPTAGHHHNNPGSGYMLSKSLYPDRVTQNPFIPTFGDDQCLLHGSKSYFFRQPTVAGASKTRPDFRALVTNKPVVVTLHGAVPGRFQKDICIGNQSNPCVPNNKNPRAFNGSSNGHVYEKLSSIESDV
Assay: not given
Details: rodents; cited from earlier work
In the case of `C[C@@H]([C@@H](O)c1ccc(O)cc1)N1CCC(O)(c2ccccc2)CC1` [CP-101, 606], the “number of occurrence and depth of cortical spreading depression” value is listed as “suppress the number of occurrence and the depth of cortical spreading depression”.
In the case of `C[C@@H](CN1CCC(Cc2ccccc2)CC1)[C@@H](O)c1ccc(O)cc1` [Ro25-6981], the “number of occurrence and depth of cortical spreading depression” value is listed as “suppress the number of occurrence and the depth of cortical spreading depression”.

Target: T2, NMDA receptor composed of four subunits including 2 sets of heterodimers of NR1 and NR2B (Homo sapiens, UniProt Q13224)
T2 construct: host or cells: HEK293 (tetracycline-induced expression)
T2 sequence (Q13224 27-1484, other chains not shown): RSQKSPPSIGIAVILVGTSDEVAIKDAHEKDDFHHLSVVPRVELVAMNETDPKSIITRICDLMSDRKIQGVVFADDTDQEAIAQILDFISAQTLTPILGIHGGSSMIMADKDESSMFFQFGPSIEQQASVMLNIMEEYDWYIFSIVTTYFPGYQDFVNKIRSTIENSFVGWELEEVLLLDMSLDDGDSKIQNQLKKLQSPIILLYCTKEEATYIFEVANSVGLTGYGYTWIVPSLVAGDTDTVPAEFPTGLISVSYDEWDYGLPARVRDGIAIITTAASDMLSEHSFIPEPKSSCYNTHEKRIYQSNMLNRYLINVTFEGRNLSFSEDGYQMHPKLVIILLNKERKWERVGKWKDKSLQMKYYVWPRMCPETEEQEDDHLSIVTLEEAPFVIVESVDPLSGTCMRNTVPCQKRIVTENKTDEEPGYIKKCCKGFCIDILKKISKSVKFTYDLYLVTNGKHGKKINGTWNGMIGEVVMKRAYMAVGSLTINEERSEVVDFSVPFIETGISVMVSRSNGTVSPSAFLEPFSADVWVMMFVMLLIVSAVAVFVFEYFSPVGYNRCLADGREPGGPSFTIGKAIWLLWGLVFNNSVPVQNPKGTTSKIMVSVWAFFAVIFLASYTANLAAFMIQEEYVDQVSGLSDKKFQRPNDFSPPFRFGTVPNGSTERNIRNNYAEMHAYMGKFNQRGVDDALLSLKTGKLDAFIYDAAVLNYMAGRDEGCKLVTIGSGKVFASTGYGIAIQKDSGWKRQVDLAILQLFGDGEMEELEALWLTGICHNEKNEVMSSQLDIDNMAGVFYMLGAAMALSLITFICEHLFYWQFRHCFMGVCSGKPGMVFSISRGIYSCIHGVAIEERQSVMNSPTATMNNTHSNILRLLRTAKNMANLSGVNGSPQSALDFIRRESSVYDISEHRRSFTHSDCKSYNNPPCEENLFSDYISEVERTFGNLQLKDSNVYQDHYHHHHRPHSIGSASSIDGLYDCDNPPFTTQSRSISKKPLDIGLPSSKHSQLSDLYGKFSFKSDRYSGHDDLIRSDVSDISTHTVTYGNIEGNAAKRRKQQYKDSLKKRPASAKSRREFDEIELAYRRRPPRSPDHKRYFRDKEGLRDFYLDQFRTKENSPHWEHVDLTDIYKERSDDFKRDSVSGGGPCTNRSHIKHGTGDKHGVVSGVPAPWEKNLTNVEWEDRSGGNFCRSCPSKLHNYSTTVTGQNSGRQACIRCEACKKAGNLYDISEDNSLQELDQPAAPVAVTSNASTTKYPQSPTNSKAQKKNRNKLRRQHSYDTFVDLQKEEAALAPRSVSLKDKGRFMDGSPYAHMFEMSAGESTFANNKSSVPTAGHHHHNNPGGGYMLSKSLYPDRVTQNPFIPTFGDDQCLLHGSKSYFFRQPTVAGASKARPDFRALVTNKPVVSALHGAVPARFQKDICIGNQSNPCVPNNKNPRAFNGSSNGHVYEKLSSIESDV
Assay: NR2B Ca2+ influx assay (FLIPR, Fluo-4) in HEK293 cells expressing human GRIN1 and GRIN2B
Assay type: cell-based
Details: HEK293, 10 μM final compound concentration, glutamic acid/glycine-induced Ca2+ influx, read-out: inhibitory rate (10 μM compound concentration)
Procedure, shortened: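 Inhibition rate was calculated from 5-min cumulative Fluo-4 signal (FLIPR, 3-s reads), using agonist-free buffer wells as 100% inhibition. Compound, 10 μM final, was applied 15 min before adding buffer with 30 μM glutamic acid and glycine to HEK293 cells with tetracycline-induced human NR1/NR2B, in HEPES pH 7.2 with 1.8 mM CaCl2.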
For `COc1ccc2ncn(C)c2c1CNC(=O)Nc1ccccc1` [Example 255, 1-((6-methoxy-1-methyl-1H-benzimidazol-7-yl)methyl)-3-phenylurea], the inhibition at 10 µM was 67%.
In the case of `COc1ccc2ncn(C)c2c1CNC(=O)Nc1ccc(C)cc1` [Example 256, 1-((6-methoxy-1-methyl-1H-benzimidazol-7-yl)methyl)-3-(4-methylphenyl)urea], the inhibition at 10 µM is reported as 90%.
In the case of `COc1ccc2ncn(C)c2c1CNC(=O)Nc1ccc(Cl)cc1` [Example 257, 1-(4-chlorophenyl)-3-((6-methoxy-1-methyl-1H-benzimidazol-7-yl)methyl)urea], the inhibition at 10 µM is reported as 90%.
With `COc1ccc2ncn(C)c2c1CNC(=O)Nc1ccc(F)c(F)c1` [Example 258, 1-(3,4-difluorophenyl)-3-((6-methoxy-1-methyl-1H-benzimidazol-7-yl)methyl)urea] the inhibition at 10 µM was 85%.
`COc1ccc(NC(=O)NCc2c(OC)ccc3ncn(C)c23)c(F)c1F` [Example 259, 1-(2,3-difluoro-4-methoxyphenyl)-3-((6-methoxy-1-methyl-1H-benzimidazol-7-yl)methyl)urea] showed an inhibition at 10 µM of 87%.
With `COc1ccc2ncn(C)c2c1CNC(=O)Nc1ccc(C(F)(F)F)cc1F` [Example 260, 1-(2-fluoro-4-(trifluoromethyl)-phenyl)-3-((6-methoxy-1-methyl-1H-benzimidazol-7-yl)methyl)urea] the inhibition at 10 µM was 92%.
In the case of `COc1ccc2ncn(C)c2c1CNC(=O)Nc1ccc(C(F)(F)F)c(F)c1` [Example 261, 1-(3-fluoro-4-(trifluoromethyl)-phenyl)-3-{(6-methoxy-1-methyl-1H-benzimidazol-7-yl)methyl)urea], the inhibition at 10 µM is reported as 92%.
`COc1ccc2ncn(C)c2c1CNC(=O)Nc1ccc(C(F)(F)F)cc1` [Example 262, 1-((6-methoxy-1-methyl-1H-benzimidazol-7-yl)methyl)-3-(4-(trifluoromethyl)-phenyl)urea] gave an inhibition at 10 µM of 91%.
`Cc1ccc2[nH]nnc2c1CNC(=O)c1ccc(OC(F)F)c(F)c1` [Example 263, 4-(difluoromethoxy)-3-fluoro-N-((5-methyl-1H-benzotriazol-4-yl)methyl)benzamide] showed an inhibition at 10 µM of 98%.
With `COc1ccc(C(=O)NCc2c(C)ccc3[nH]nnc23)cc1` [Example 264, 4-methoxy-N-((5-methyl-1H-benzotriazol-4-yl)methyl)benzamide] the inhibition at 10 µM was 83%.
For `Cc1ccc2[nH]nnc2c1CNC(=O)c1ccc(OC(F)F)cc1` [Example 265, 4-(difluoromethoxy)-N-((5-methyl-1H-benzotriazol-4-yl)methyl)benzamide], the inhibition at 10 µM was 97%.
`COc1ccc(NC(=O)NCc2c(OC)ccc3ncn(C)c23)cc1` [Example 266, 1-((6-methoxy-1-methyl-lH-benzimidazol-7-yl)methyl)-3-(4-methoxyphenyl)urea] showed an inhibition at 10 µM of 58%.
For `COc1ccc2ncn(C)c2c1CNC(=O)Nc1ccc(F)c(C(F)(F)F)c1` [Example 267, 1-(4-fluoro-3-(trifluoromethyl)-phenyl)-3-((6-methoxy-1-methyl-lH-benzimidazol-7-yl)methyl)urea], the inhibition at 10 µM was 74%.
`Cc1ccc2[nH]nnc2c1CNC(=O)c1cnc(OC(F)F)c(F)c1` [Example 268, 6-(difluoromethoxy)-5-fluoro-N-((5-methyl-1H-benzotriazol-4-y1)methyl)nicotinamide] gave an inhibition at 10 µM of 97%.
With `Cc1n[nH]c2cccc(CNC(=O)c3ccc(OC(F)(F)F)c(F)c3)c12` [Example 269, 3-fluoro-N-((3-methyl-1H-indazol-4-yl)methyl)-4-(trifluoromethoxy)-benzamide] the inhibition at 10 µM was 87%.
For `COc1c(F)cc(C(=O)NCc2cccc3[nH]nc(C)c23)cc1F` [Example 270, 3,5-difluoro-4-methoxy-N-((3-methyl-1H-indazol-4-yl)methyl)benzamide], the inhibition at 10 µM was 67%.
In the case of `Cc1n[nH]c2cccc(CNC(=O)c3cnc(OC(F)F)c(F)c3)c12` [Example 271, 6-(difluoromethoxy)-5-fluoro-N-((3-methyl-1H-indazol-4-yl)methyl)nicotinamide], the inhibition at 10 µM is reported as 82%.
In the case of `O=C(NCc1cccc2[nH]nc(Br)c12)c1ccc(OC(F)(F)F)c(F)c1` [Example 272, N-[(3-bromo-1H-indazol-4-yl)methyl]-3-fluoro-4-(trifluoromethoxy)-benzamide], the inhibition at 10 µM is reported as 59%.
Compound `O=C(NCc1c(F)ccc2[nH]ncc12)c1ccc(OC(F)(F)F)cc1` [Example 273, N-[(5-fluoro-1H-indazol-4-yl)methyl]-4-(trifluoromethoxy)-benzamide] has an inhibition at 10 µM of 93%.
Compound `Cn1nnc2cccc(CNC(=O)c3ccc(OC(F)(F)F)c(F)c3)c21` [Example 274, 3-fluoro-N-[(1-methyl-1H-benzotriazol-7-yl)methyl]-4-(trifluoromethoxy)-benzamide] has an inhibition at 10 µM of 93%.
Compound `Cn1nnc2cccc(CNC(=O)c3cnc(OC(F)F)c(F)c3)c21` [Example 275, 6-(difluoromethoxy)-5-fluoro-N-[(1-methyl-1H-benzotriazol-7-yl)methyl]pyridine-3-carboxamide] has an inhibition at 10 µM of 82%.
Work on `COc1ccc2ncn(C)c2c1CNC(=O)c1ccc(OC(F)F)nc1` [Example 276, 6-(difluoromethoxy)-N-[(6-methoxy-l-methyl-1H-benzimidazol-7-yl)methyl]pyridine-3-carboxamide] yielded an inhibition at 10 µM of 88%.
For `COc1ccc2ncn(C)c2c1CNC(=O)c1ccc(OC(F)F)cc1F` [Example 277, 4-(difluoromethoxy)-2-fluoro-N-[(6-methoxy-1-methyl-1H-benzimidazol-7-yl)methyl]benzamide], the inhibition at 10 µM was 63%.
`COc1ccc2ncn(C)c2c1CNC(=O)c1ccc(CC(F)(F)F)cc1` [Example 278, N-[(6-methoxy-1-methyl-1H-benzimidazol-7-yl)methyl]-4-(2,2,2-trifluoroethyl)-benzamide] gave an inhibition at 10 µM of 77%.
`COCc1ccc2ncn(C)c2c1CNC(=O)c1cc(F)c(OC)c(F)c1` [Example 279, 3,5-difluoro-4-methoxy-N-{[6-(methoxymethyl)-1-methyl-1H-benzimidazol-7-yl]methyl}benzamide] gave an inhibition at 10 µM of 88%.
Compound `COCc1ccc2ncn(C)c2c1CNC(=O)c1ccc(C(F)(F)F)cc1` [Example 280, N-{[6-(methoxymethyl)-1-methyl-1H-benzimidazol-7-yl]methyl}-4-(trifluoromethyl)-benzamide] has an inhibition at 10 µM of 75%.
Compound `COCc1ccc2ncn(C)c2c1CNC(=O)c1cnc(OC(F)F)c(F)c1` [Example 281, 6-(difluoromethoxy)-5-fluoro-N-{[6-(methoxymethyl)-1-methyl-lH-benzimidazol-7-yl]methyl}pyridine-3-carboxamide] has an inhibition at 10 µM of 82%.
`COCc1ccc2ncn(C)c2c1CNC(=O)c1csc(C(F)(F)F)c1` [Example 282, N-{[6-(methoxymethyl)-1-methyl-lH-benzimidazol-7-yl]methyl)-5-(trifluoromethyl)-thiophene-3-carboxamide] showed an inhibition at 10 µM of 76%.
For `COCc1ccc2ncn(C)c2c1CNC(=O)c1ccc(OC(F)F)c(Cl)c1` [Example 283, 3-chloro-4-(difluoromethoxy)-N-{[6-(methoxymethyl)-1-methyl-1H-benzimidazol-7-yl]methyl}benzamide], the inhibition at 10 µM was 93%.
With `COCc1ccc2ncn(C)c2c1CNC(=O)c1ccc(OC(F)(F)F)c(F)c1` [Example 284, 3-fluoro-N-{[6-(methoxymethyl)-1-methyl-1H-benzimidazol-7-yl]methyl}-4-(trifluoromethoxy)-benzamide] the inhibition at 10 µM was 95%.

Target: T3, NMDA receptor containing the NR2B subunit (Homo sapiens, UniProt Q13224)
T3 sequence (Q13224 27-1484, other chains not shown): as above
Assay: not given
Details: continuous intravenous administration; cited from earlier work
For `C[C@@H]([C@@H](O)c1ccc(O)cc1)N1CCC(O)(c2ccccc2)CC1` [CP-101, 606], the treatment resistant-depression symptom is listed as “significantly improves treatment resistant-depression symptom”.

Target: T3, NMDA receptor containing the NR2B subunit
Assay: not given
Details: in vivo; cited from earlier work
In the case of `CC(C(O)c1ccc(O)cc1)N1CCC(Cc2ccccc2)CC1` (stereo not drawn) [Ifenprodil], the pain sense threshold is listed as “pain sense threshold increases”.

Test system: NMDA receptor
Assay: not given
Details: continuous intravenous administration; cited from earlier work
For `CNC1(c2ccccc2Cl)CCCCC1=O` (stereo not drawn) [ketamine], the “depression symptom accompanying major depression and bipolar disorder” value is given as “improves depression symptom accompanying major depression and bipolar disorder rapidly and in a sustained manner”.

Test system: NMDA receptor
Assay: not given
Details: in vivo; cited from earlier work
In the case of `CC12CC3CC(C)(C1)CC(N)(C3)C2` [memantine], the “peripheral symptoms of dementia” value is given as “partially improves peripheral symptoms of dementia”.
